Laboratory results as given in publication PMC5795618 (Molecular pharmaceutics, 2017).
Where two headings read alike, the source gives them in different places. Blank lines part the entries; values can stand above or below the molecule they belong to.

Key:
[1] = Plasma stability of 2-PMPA prodrugs, human plasma; format: in vitro ADME; conditions: 10 μM, 37 °C
[2] = rats; for tissue/plasma ratio: AUC tissue/AUC plasma of 2-PMPA
[3] = rats; for tissue/plasma ratio: AUC tissue/AUC plasma of 2-PMPA; remark: listed apart in the source
[4] = molecular target: recombinant human GCPII protein (Homo sapiens, UniProt Q04609); assay: GCPII radioenzymatic activity assay; format: biochemical; conditions: read-out: IC50(±SEM)
[5] = tested on: GCPII; conditions: cited from earlier work
[6] = cited from earlier work
[7] = primates, IN 2-PMPA 30 mg/kg; cited from earlier work
[8] = equivalent 2-PMPA administration, cited from earlier work

Chain of recombinant human GCPII protein (Q04609 whole entry): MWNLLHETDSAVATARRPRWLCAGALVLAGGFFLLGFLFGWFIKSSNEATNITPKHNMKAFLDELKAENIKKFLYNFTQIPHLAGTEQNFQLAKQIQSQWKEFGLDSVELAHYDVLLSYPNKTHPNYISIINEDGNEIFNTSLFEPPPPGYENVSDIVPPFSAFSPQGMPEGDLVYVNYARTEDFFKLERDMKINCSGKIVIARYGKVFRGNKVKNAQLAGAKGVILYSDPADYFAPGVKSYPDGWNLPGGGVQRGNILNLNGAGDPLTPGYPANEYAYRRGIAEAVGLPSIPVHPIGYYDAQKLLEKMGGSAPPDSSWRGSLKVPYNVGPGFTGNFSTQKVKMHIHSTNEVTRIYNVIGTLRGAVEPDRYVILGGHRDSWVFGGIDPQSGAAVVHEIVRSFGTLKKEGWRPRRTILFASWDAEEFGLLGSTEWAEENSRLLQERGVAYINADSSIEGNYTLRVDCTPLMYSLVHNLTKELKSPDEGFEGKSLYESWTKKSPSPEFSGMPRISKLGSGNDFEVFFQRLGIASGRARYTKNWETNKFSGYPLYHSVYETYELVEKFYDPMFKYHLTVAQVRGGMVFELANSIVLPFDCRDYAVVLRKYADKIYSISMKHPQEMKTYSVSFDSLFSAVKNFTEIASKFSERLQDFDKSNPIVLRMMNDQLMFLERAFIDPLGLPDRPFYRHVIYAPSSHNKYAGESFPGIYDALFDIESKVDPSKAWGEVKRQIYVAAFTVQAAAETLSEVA

IC50 ([4]; GCPII inhibition): 20 ± 1 nM
Structure (SMILES): O=C(CCC(CP(=O)(O)O)C(=O)O)OCc1ccccc1 (stereo not shown) [Compound 4]

IC50 ([4]; GCPII inhibition): 2 ± 0.2 nM
Structure (SMILES): CCCCCCCCOC(=O)CCC(CP(=O)(O)O)C(=O)O (stereo not shown) [Compound 5]

The next lines start with the molecule.

Structure (SMILES): CC(=O)Oc1ccc(COC(=O)CCC(CP(=O)(O)O)C(=O)O)cc1 (stereo not shown) [Compound 1, γ-(4-acetoxybenzyl)-2-PMPA]
Plasma stability % remaining @60 min Human [1]: 42%
tissue/plasma ratio ([2]; cerebellum, IN): 0.26
tissue/plasma ratio ([2]; olfactory bulb, IN): 2.2
tissue/plasma ratio ([2]; plasma, IN): 1
improvement of sciatic nerve to plasma ratio over free 2-PMPA ([2]; IN compound 1 versus equivalent dose of 2-PMPA): 7 fold
intact prodrug AUC in plasma ([2]; IN, 10 mg/kg equivalent): 8.04 µM·h
intact prodrug in brain or sciatic nerve ([2]; IN, any time point): No intact prodrug was quantifiable
Cmax ([2]; read-out: intact prodrug Cmax in plasma, IN, 10 mg/kg equivalent): 22 µM
tissue/plasma ratio ([2]; sciatic nerve, IN): 0.84
tissue/plasma ratio ([3]; cerebellum, IV): 0.04
fold lower 2-PMPA level after IV as compared to IN ([3]; cerebellum): 4 fold
tissue/plasma ratio ([3]; cortex, IV): 0.04
fold lower 2-PMPA level after IV as compared to IN ([3]; cortex): 4.5 fold
tissue/plasma ratio ([3]; olfactory bulb, IV): 0.03
tissue/plasma ratio ([3]; plasma, IV): 1
intact prodrug in brain or sciatic nerve ([3]; IV, any time point): No intact prodrug was quantifiable
Cmax ([3]; read-out: intact prodrug Cmax in plasma, IV, 10 mg/kg equivalent): 0.2 µM
tissue/plasma ratio ([3]; sciatic nerve, IV): 0.21
fold lower 2-PMPA level after IV as compared to IN ([3]; sciatic nerve): 5 fold
IC50 [4]: 3 ± 0.2 nM

Structure (SMILES): O=C(O)CCC(CP(=O)(O)O)C(=O)O (stereo not shown) [Compound 2-PMPA, 2-(Phosphonomethyl)pentanedioic acid]
oral bioavailability (F) [6]: < 2%
plasma exposure (AUC) ([8]; IN route): 79.1 µM·h
plasma exposure (AUC) ([8]; intraperitoneal (IP) route): 77.1 µM·h

Structure (SMILES): CCCCOC(=O)CCC(CP(=O)(O)O)C(=O)O (stereo not shown) [Compound 3]
IC50 ([4]; GCPII inhibition): 1 ± 0.1 nM
